Results published in ChEMBL document CHEMBL1201862, “PubChem BioAssay data set” (2004).
Active and inactive are the calls of the source.

Experiments:
CAAX prenyl protease 2 = target: T1, CAAX prenyl protease 2 (Saccharomyces cerevisiae S288c, UniProt Q03530); type: biochemical
T1 sequence (Q03530 whole entry): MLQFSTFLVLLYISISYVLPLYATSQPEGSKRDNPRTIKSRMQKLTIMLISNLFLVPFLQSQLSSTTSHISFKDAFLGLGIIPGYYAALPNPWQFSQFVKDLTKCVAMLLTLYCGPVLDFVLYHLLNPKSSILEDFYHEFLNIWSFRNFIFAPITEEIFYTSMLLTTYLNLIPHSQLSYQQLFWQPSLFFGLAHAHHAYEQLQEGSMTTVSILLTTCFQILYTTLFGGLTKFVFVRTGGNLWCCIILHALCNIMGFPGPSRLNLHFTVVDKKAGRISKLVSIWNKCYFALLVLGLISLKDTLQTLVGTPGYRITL

[1] = target: T2, Acyl-homoserine lactone acylase PvdQ (Pseudomonas aeruginosa (strain LESB58), UniProt Q9I194); assay: PvdQ acylase enzyme activity blockers – biochemical, fluorescence, plate reader and imaging, cherry-picks, dose response (AID 493231)
T2 sequence (Q9I194 whole entry): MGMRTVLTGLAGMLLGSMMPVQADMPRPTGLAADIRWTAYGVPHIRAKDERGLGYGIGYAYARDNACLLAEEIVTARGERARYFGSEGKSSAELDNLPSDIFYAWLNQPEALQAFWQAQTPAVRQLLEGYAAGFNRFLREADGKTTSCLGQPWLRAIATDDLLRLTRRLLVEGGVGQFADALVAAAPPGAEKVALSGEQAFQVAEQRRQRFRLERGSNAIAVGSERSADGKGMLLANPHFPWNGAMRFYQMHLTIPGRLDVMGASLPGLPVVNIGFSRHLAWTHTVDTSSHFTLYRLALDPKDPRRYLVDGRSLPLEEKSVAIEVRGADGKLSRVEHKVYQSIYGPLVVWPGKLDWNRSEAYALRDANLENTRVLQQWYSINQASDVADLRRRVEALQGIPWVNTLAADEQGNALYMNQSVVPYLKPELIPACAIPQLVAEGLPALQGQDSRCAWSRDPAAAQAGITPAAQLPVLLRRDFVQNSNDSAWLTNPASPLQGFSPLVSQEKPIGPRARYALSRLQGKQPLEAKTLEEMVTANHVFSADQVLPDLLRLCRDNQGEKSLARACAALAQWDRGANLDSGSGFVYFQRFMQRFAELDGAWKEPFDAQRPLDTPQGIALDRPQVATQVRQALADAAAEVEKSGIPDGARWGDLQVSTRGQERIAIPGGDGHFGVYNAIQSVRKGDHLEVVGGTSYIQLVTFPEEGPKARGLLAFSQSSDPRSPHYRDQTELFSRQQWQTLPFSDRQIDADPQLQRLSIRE

Estrogen receptor = target: T3, Estrogen receptor (Homo sapiens, UniProt P03372);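 also: potency for inhibiting coactivator peptide recruitment to the receptor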
T3 sequence (P03372 whole entry): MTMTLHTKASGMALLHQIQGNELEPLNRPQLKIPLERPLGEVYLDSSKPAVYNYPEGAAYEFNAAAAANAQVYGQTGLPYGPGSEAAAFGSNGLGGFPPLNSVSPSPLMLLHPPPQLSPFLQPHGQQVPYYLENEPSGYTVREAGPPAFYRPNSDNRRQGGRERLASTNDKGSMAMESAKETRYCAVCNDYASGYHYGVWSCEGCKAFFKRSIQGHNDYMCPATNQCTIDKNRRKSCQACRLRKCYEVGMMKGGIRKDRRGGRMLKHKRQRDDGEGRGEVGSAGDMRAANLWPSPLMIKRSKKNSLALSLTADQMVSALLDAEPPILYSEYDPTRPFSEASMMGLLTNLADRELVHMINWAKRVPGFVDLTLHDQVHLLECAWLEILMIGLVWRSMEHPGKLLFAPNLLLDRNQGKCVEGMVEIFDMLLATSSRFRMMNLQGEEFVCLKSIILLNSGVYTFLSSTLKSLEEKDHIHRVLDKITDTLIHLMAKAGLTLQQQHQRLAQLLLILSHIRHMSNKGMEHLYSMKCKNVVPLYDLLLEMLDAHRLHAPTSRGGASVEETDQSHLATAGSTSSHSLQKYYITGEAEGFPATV

[2] = target: DNA dC->dU-editing enzyme APOBEC-3G (Homo sapiens, UniProt Q9HC16); assay: Dose Response confirmation of small molecule APOBEC3G DNA Deaminase Inhibitors via a fluorescence-based single-stranded DNA deaminase assay. [Related pubchem assays (depositor defined):AID493012, AID493028]; type: functional
[3] = target: Voltage-dependent T-type calcium channel subunit alpha-1H (Homo sapiens, UniProt O95180); type: functional;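 also: channel activity triggered by adding a high calcium stimulation buffer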
[4] = target: Induced myeloid leukemia cell differentiation protein Mcl-1 (Homo sapiens, UniProt Q07820); type: functional
Cytochrome P450 2C19 = Cytochrome P450 2C19 (Homo sapiens, UniProt P33261); assay: qHTS Assay for Inhibitors and Substrates of Cytochrome P450 2C19. [Related pubchem assays: 410 ]; type: ADME; details: read-out: Potency
Large T antigen = Large T antigen (Simian virus 40, UniProt P03070); type: functional, Betapolyomavirus macacae;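 also: Confirmatory-stage PubChem screen for compounds that inhibit SV40 T antigen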
[5] = fluconazole-exposed Candida albicans growth modulators – fluorescence, retest, confirmation (AID 2467); type: functional, cell-based
[6] = viability of uninfected HEp-2 cells – cell-based, HTS, cytotoxicity control for RSV inhibitor project, dose response (AID 2410); type: functional; details: human respiratory syncytial virus
[7] = NIH-3T3 fibroblast cytotoxicity, dose response, cytotoxicity control, cell-based, fluorescence, Alamar Blue, secondary assay (AID 2327); type: functional;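 also: NIH-3T3 mouse fibroblasts cultured with fluconazole at 8 µg/mL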
cells [8] = assay: cells
cells [9] = type: functional, cell-based
cells [10] = type: functional, cell-based; remark: listed apart in the source
[11] = target: T4, Trace amine-associated receptor 1 (Homo sapiens, UniProt Q96RJ0); assay: Counterscreen for agonists of the human trace amine associated receptor 1 (hTAAR1): Fluorescence-based cell-based high throughput dose response assay to identify hTAAR1 agonist that also desensitize TAAR1 receptor response.; type: functional
T4 sequence (Q96RJ0 whole entry): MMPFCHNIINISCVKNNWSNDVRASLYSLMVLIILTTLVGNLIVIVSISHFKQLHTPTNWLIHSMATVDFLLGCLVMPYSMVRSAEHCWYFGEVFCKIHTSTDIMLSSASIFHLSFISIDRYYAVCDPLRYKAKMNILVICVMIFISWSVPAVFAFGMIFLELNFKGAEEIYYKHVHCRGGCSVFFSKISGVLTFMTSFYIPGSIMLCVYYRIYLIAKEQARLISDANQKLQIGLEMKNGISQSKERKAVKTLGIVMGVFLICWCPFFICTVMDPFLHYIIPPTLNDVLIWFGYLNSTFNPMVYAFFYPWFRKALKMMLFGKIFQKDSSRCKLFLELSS

[12] = target: T4, Trace amine-associated receptor 1; assay: Fluorescence-based cell-based high throughput dose response assay to identify agonists of the human trace amine associated receptor 1 (TAAR1).; type: functional
Fatty acid synthase [13] = target: T5, Fatty acid synthase (Homo sapiens, UniProt P49327); assay: inhibition of human FAS-TE enzyme activity – biochemical, endpoint fluorescence intensity, uHTS hits, dose response (AID 624327); type: functional;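 also: fluorescence from hydrolysis of an O-methyl fluorescein acyl ester substrate by the enzyme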
Fatty acid synthase [14] = target: T5, Fatty acid synthase; assay: inhibition of human FAS-TE enzyme activity – biochemical, kinetic fluorescence intensity, dose response (AID 624326); type: functional;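 also: rate of fluorescence rise from hydrolysis of a fluorogenic O-methyl fluorescein ester substrate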
Aminopeptidase N = target: T6, Aminopeptidase N (Plasmodium falciparum FcB1/Columbia, UniProt O96935); assay: malaria alanyl aminopeptidase activity blockers – biochemical, fluorogenic H-Leu-NHMec substrate, 1536-well (AID 1445); parameters: species or system Plasmodium falciparum 3D7, 3D7
T6 sequence (O96935 whole entry): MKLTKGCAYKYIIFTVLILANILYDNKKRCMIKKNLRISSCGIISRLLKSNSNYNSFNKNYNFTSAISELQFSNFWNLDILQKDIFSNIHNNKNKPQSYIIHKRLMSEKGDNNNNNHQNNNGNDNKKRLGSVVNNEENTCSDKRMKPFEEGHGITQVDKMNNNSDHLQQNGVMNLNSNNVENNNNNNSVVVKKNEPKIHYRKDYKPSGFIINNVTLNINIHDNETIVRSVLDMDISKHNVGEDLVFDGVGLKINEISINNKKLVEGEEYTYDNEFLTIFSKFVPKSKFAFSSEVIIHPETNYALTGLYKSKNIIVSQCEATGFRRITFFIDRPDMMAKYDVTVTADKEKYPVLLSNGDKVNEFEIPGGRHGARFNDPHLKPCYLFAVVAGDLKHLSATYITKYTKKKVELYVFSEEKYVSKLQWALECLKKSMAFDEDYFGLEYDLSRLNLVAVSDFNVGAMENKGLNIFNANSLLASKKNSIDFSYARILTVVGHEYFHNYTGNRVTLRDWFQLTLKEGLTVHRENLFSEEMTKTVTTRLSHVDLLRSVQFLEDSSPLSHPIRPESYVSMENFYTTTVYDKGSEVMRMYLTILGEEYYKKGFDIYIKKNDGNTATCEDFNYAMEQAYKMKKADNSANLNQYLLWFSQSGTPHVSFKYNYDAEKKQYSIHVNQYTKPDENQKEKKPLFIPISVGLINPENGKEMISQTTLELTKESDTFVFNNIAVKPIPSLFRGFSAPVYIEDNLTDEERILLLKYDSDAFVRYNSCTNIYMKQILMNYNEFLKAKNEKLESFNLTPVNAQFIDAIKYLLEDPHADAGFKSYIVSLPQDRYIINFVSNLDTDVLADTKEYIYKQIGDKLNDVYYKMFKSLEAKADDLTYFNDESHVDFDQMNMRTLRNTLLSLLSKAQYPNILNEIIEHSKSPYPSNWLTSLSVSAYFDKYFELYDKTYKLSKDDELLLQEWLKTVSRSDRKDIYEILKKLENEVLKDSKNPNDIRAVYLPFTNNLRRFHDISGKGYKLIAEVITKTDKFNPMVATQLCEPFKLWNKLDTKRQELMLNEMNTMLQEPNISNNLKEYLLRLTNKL

Beta-galactosidase = Beta-galactosidase (Escherichia coli, UniProt Q8VNN2); assay: detection-enzyme interference by beta-gal modulators – biochemical, E. coli enzyme, set 3, artefact control for CCR6 antagonist project, dose response (AID 504712); type: functional
Beta-galactosidase, sequence (Q8VNN2 whole entry): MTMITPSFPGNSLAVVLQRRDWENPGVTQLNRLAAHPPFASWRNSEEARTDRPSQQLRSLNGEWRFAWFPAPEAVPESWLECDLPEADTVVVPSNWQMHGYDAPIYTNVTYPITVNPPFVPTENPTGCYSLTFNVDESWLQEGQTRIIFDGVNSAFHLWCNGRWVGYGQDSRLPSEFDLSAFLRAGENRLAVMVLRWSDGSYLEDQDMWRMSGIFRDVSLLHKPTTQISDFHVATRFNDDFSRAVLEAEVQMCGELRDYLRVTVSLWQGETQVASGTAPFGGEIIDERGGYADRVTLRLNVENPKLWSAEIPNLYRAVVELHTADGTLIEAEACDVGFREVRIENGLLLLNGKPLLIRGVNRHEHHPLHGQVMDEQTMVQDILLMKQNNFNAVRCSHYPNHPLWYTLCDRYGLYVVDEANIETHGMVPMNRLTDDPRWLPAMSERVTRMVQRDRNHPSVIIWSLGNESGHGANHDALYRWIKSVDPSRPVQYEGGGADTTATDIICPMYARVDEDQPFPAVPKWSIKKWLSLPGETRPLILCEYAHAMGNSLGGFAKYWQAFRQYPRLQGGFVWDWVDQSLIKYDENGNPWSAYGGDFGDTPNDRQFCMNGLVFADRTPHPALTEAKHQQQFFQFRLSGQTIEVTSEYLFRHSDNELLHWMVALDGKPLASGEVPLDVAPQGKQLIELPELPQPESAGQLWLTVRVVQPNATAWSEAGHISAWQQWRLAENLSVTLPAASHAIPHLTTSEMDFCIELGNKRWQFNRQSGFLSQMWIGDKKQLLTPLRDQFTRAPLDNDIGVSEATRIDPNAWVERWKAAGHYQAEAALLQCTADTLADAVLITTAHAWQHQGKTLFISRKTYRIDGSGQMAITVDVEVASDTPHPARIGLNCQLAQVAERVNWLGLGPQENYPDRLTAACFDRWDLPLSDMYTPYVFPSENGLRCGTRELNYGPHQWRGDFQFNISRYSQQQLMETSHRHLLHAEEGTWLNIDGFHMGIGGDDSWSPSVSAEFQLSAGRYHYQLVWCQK

Voltage-dependent T-type calcium channel subunit alpha-1H, sequence (O95180 whole entry): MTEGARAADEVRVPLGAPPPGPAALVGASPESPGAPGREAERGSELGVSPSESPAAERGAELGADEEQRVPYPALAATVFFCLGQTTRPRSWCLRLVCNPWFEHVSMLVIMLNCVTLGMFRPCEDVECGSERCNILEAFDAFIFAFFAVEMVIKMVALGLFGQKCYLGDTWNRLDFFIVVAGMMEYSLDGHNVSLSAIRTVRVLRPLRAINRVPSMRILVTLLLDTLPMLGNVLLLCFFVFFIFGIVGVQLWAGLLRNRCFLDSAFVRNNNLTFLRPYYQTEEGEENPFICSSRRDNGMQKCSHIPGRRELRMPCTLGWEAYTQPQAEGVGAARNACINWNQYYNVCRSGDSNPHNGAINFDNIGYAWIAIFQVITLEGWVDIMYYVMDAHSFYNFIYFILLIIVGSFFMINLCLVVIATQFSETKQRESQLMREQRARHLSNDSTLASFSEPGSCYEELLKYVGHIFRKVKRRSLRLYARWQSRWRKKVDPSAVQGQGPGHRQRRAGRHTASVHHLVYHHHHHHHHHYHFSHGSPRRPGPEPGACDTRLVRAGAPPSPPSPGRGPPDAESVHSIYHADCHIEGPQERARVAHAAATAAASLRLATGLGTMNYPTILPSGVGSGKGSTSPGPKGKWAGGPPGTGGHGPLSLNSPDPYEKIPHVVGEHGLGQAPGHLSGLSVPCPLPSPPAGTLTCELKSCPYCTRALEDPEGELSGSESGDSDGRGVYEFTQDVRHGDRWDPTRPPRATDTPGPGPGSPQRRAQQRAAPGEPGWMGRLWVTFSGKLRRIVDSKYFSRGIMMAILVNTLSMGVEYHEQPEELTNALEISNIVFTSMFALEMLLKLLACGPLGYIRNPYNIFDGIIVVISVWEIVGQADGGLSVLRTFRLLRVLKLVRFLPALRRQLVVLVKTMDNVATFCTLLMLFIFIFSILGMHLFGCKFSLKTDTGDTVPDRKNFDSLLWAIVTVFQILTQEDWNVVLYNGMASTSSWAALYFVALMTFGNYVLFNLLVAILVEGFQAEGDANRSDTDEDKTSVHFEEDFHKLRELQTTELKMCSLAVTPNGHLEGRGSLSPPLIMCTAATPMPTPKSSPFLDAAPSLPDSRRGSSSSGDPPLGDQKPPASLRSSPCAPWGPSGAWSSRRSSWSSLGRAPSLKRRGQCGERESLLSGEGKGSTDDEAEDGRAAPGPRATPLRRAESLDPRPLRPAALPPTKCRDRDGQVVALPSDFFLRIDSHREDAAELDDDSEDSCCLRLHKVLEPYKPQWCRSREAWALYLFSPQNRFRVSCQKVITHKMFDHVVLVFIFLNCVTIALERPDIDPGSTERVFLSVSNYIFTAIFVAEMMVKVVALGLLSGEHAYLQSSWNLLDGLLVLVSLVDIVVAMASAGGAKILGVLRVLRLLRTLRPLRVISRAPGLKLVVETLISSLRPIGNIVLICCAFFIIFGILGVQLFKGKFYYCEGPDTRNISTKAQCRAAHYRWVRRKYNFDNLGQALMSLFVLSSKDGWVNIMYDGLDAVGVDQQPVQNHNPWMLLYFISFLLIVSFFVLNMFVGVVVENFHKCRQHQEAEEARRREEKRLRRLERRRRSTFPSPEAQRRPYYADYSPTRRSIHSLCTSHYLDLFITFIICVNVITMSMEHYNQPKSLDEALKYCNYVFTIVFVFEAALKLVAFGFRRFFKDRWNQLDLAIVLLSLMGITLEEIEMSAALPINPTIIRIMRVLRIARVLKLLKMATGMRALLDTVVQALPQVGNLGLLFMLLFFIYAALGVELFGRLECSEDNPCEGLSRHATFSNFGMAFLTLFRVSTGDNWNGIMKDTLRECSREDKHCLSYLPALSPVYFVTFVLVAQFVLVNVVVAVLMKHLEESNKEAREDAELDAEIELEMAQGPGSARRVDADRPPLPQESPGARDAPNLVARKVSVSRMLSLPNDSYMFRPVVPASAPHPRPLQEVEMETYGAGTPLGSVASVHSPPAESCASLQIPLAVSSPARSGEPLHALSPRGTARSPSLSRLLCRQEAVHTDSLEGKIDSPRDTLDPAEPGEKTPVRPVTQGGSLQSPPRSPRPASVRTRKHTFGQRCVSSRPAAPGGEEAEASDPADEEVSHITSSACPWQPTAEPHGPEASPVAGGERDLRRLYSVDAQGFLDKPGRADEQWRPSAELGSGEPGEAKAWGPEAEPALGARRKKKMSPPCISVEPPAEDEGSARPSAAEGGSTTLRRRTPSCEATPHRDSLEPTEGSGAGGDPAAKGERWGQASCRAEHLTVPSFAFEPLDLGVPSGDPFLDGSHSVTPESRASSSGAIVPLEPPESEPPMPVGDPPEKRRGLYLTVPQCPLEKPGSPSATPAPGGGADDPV
Induced myeloid leukemia cell differentiation protein Mcl-1, sequence (Q07820 whole entry): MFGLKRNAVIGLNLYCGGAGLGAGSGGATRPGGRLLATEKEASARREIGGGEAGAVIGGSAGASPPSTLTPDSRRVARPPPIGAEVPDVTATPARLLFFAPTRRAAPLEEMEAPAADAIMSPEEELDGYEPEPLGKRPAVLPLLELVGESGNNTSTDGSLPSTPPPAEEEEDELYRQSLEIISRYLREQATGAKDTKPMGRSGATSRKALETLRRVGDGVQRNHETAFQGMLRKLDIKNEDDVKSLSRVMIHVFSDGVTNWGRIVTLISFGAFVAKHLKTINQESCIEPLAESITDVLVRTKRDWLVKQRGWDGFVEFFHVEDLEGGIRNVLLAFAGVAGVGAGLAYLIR
Large T antigen, sequence (P03070 whole entry): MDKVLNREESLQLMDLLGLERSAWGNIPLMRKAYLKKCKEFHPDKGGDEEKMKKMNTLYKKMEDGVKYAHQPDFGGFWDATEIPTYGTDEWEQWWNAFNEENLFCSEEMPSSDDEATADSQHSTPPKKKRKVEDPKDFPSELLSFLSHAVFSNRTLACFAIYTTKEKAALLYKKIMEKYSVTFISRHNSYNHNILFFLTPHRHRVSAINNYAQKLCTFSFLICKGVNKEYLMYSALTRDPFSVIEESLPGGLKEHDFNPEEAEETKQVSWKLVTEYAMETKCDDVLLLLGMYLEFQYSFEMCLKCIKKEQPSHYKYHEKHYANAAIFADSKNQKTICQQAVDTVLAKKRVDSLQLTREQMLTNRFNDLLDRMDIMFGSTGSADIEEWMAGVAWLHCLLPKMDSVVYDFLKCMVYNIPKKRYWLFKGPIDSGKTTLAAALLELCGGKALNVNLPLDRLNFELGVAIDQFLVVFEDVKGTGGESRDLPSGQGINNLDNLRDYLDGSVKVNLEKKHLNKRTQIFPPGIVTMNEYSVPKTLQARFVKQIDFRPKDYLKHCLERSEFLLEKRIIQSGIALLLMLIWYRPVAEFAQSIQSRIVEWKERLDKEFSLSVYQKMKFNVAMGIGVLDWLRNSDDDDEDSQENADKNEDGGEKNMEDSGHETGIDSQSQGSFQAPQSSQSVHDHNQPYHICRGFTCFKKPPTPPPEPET
DNA dC->dU-editing enzyme APOBEC-3G, sequence (Q9HC16 whole entry): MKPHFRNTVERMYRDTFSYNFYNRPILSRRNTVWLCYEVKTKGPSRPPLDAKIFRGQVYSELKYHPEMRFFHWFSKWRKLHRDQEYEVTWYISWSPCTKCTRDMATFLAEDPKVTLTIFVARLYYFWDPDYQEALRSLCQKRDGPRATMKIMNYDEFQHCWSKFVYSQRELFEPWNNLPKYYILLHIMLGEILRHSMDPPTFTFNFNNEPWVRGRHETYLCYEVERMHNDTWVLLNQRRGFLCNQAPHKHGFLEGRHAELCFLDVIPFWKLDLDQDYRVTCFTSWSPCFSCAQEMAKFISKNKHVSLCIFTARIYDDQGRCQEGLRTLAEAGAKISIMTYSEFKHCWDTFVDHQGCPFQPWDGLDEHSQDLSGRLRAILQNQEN

COc1ccc(OC)c(Cc2nnc(CCC(=O)N3CCN(C4CCCC4)CC3)o2)c1
AC50 (CAAX prenyl protease 2): 7.48 µM (active)

O=[N+]([O-])c1ccc(N2CCCCC2)nc1
AC50 [1]: 3.98 µM (active)

O=C(NC1CC1)c1cc2cc3ccccc3nc2s1
AC50 [1]: 45.7 µM (active)

CCn1c(SCC(=O)c2ccc(CNC(C)=O)o2)nnc1-c1cccs1
IC50 (Estrogen receptor): 42.7 µM (not active)

CCN(CC)C(=O)CSc1nc2c(sc(=S)n2-c2ccccc2)c(=O)n1-c1ccc(OC)cc1OC
IC50 [2]: 51.9 µM (active)

O=P(Nc1ccccc1Cl)(c1ccccc1)c1nc2c(s1)CCCC2 (stereo not drawn)
EC50 [3]: 5.95 µM (active)

Nc1cccc(C2=Nc3cccc4cccc(c34)N2)c1
IC50 [4]: 3 µM (active)

CC12CC3OS(=O)OC3CC3C4C(C(OCc5ccccc5)C31)C42 (stereo not drawn)
AC50 (Cytochrome P450 2C19): 0.251 µM (inconclusive)

CNC(=S)Nc1sc2c(c1C(=O)OC)CCC2
IC50 [4]: 1.48 µM (active)

COc1ccc(CN2C(=O)NC(=O)/C(=C/c3ccc([N+](=O)[O-])o3)C2=O)cc1
IC50 (Large T antigen): 71.7 µM (active)
IC50 [4]: 3.22 µM (active)

CC(C)c1ccc2oc(-c3ccc(NC(=O)c4nc[nH]n4)cc3)nc2c1
EC50 [5]: 0.04 µM (active)
CC50 [6]: > 50 µM (active)
EC50 [7]: > 160 µM (inactive)
IC50 (cells [8]): 42.2 µM (active)

O=C(CNCCc1ccccc1)N1CCc2ccccc2C1
EC50 (cells [9]): > 29.9 µM (inactive)
IC50 (cells [10]): > 29.9 µM (inactive)
IC50 [11]: 5.52 µM (active)
EC50 [12]: 1.2 µM (active)

CCOC(=O)c1c(NC(=O)CSc2nnc(CNC(=O)c3ccco3)n2C)sc2c1CCC2
IC50 (Estrogen receptor): > 50 µM (not active)

Cc1nnn(-c2nonc2N)c1C(=O)NNC(=O)c1ccc(Cl)c(Cl)c1
EC50 (cells [9]): > 29.9 µM (inactive)
IC50 (cells [10]): > 29.9 µM (inactive)
IC50 [11]: > 29.9 µM (inactive)
EC50 [12]: 5.05 µM (active)

COc1ccc(N2CCN(C(=O)CN(Cc3ccc(Cl)cc3)S(C)(=O)=O)CC2)cc1
EC50 [3]: 11.3 µM (active)

COCCN(C(=O)C(C)C)c1nnc(-c2cccc(C)c2)s1
CC50 [6]: > 50 µM (active)
IC50 (cells [8]): 37.4 µM (active)

COc1ccc2cc3cc(C(=O)N4CCCCC4C)oc3nc2c1 (stereo not drawn)
CC50 [6]: 42.4 µM (active)
IC50 (Fatty acid synthase [13]): 2.81 µM (active)
IC50 (cells [8]): 35.1 µM (active)
IC50 (Fatty acid synthase [14]): 2.52 µM (active)

CN1C(=O)/C(=C/c2cccc(Cl)c2)Sc2ccc(C(=O)N3CCOCC3)cc21
AC50 (CAAX prenyl protease 2): 5.96 µM (active)

O=C(N[C@H](C(=O)N1CCC[C@H]1C(=O)NCCc1ccccc1Cl)c1ccccc1)c1ccccc1
EC50 (cells [9]): > 29.9 µM (inactive)
IC50 (cells [10]): > 29.9 µM (inactive)
IC50 [11]: 5.99 µM (active)
EC50 [12]: 3.78 µM (active)

COC(=O)c1c(-c2ccc(C(C)(C)C)cc2)csc1NC(=O)C1C2CCC(O2)C1C(=O)O (stereo not drawn)
IC50 (Aminopeptidase N): 79.5 µM (active)

O=C(CN1CCC(NC(=O)c2ccccc2)CC1)NCc1ccccc1F
IC50 (Aminopeptidase N): 39.3 µM (active)

CC(=O)OC1CC(C)(C)N(OC(=O)c2ccc(N)cc2)C(C)(C)C1
IC50 (Estrogen receptor): 26.3 µM (active)

Cc1oc(-c2cccc(Cl)c2)nc1CN1CCC(C(=O)NCc2ccco2)CC1
EC50 [3]: 5.8 µM (active)

O=C(O)c1cccc(Nc2nc(-c3cccnc3)nc3ccccc23)c1
IC50 (Aminopeptidase N): 79.2 µM (active)

O=C(O)CCc1ccc(-c2cccs2)n1CCc1ccccc1
EC50 (cells [9]): > 29.9 µM (inactive)
IC50 (cells [10]): > 29.9 µM (inactive)
IC50 [11]: 5.93 µM (active)
EC50 [12]: 0.62 µM (active)

O=C(NCc1ccc2c(c1)OCO2)C1CCN(S(=O)(=O)c2cccs2)CC1
IC50 (Aminopeptidase N): 26.7 µM (active)

O=C(CCC1COc2ccccc2O1)NCC1COc2ccccc2O1 (stereo not drawn)
EC50 [3]: 1.77 µM (active)

O=[N+]([O-])c1ccc(NN=Cc2ccccc2O)nc1
IC50 (Beta-galactosidase): 46 µM (inactive)
